Measurements published in patent publication US8012975B2, “Antitumoral analogs of ET-743” (Pharma Mar, S.A., priority 2000, dated 2011).

Measured: IC50

COc1c(C)cc2c(c1O)[C@@H]1C3Cc4c(OC(C)=O)c(C)c5c(c4[C@H](CNC(=O)/C=C/c4cccc(C(F)(F)F)c4)N3[C@@H](C#N)[C@H](C2)N1C)OCO5 (stereo partly shown)
0.1 nM: P-388 | HT-29 | A-549 | DU-145 | MEL-28

COc1c(C)cc2c(c1O)[C@@H]1C3Cc4c(OC(C)=O)c(C)c5c(c4[C@H](CNC(=O)[C@@H](C)NC(=O)CC(C)C)N3[C@@H](C#N)[C@H](C2)N1C)OCO5 (stereo partly shown)
0.1 nM: P-388 | HT-29 | A-549 | DU-145 | MEL-28

COc1c(C)cc2c(c1O)[C@@H]1C3Cc4c(OC(C)=O)c(C)c5c(c4[C@H](CNC(=O)[C@H](C)NC(=O)C(F)(F)F)N3[C@@H](C#N)[C@H](C2)N1C)OCO5 (stereo partly shown)
0.1 nM: P-388 | HT-29 | A-549 | DU-145 | MEL-28

C/C=C(\OC(C)=O)C1=C(C2=COCO2)[C@H](CNC(=O)/C=C/c2ccccc2)N2C(C1)[C@H]1c3c(cc(C)c(OC)c3O)C[C@@H]([C@@H]2C#N)N1C (stereo partly shown)
0.1 nM: P-388 | HT-29 | A-549 | DU-145 | MEL-28

C/C=C(\OC(C)=O)C1=C(C2=COCO2)[C@H](CNC(=O)CCC)N2C(C1)[C@H]1c3c(cc(C)c(OC)c3O)C[C@@H]([C@@H]2C#N)N1C (stereo partly shown)
0.1 nM: P-388 | HT-29 | A-549 | DU-145 | MEL-28

C=CCOC(=O)Oc1c(C)c2c(c3c1CC1[C@H]4c5c(cc(C)c(OC)c5O)C[C@@H]([C@H](C#N)N1[C@H]3CNC(=O)/C=C/c1ccccc1)N4C)OCO2 (stereo partly shown)
0.1 nM: P-388 | HT-29 | A-549 | DU-145 | MEL-28

C=CCOC(=O)Oc1c(C)c2c(c3c1CC1[C@H]4c5c(cc(C)c(OC)c5O)C[C@@H]([C@H](O)N1[C@H]3CNC(=O)/C=C/c1ccccc1)N4C)OCO2 (stereo partly shown)
0.1 nM: P-388 | HT-29 | A-549 | DU-145 | MEL-28

C=CCOC(=O)Oc1c(C)c2c(c3c1CC1[C@H]4c5c(cc(C)c(OC)c5O)C[C@@H]([C@H](C#N)N1[C@H]3CNC(=O)CCc1ccccc1)N4C)OCO2 (stereo partly shown)
0.1 nM: P-388 | HT-29 | A-549 | DU-145 | MEL-28

C=CCOC(=O)Oc1c(C)c2c(c3c1CC1[C@H]4c5c(cc(C)c(OC)c5O)C[C@@H]([C@H](O)N1[C@H]3CNC(=O)CCc1ccccc1)N4C)OCO2 (stereo partly shown)
0.1 nM: P-388 | HT-29 | A-549 | DU-145 | MEL-28

COc1c(C)cc2c(c1O)[C@@H]1C3Cc4c(OC(C)=O)c(C)c5c(c4[C@H](CNC(=O)[C@H](C)NC(=O)C(F)(F)F)N3[C@@H](O)[C@H](C2)N1C)OCO5 (stereo partly shown) [drawing 110]
0.1 nM: P-388 | HT-29 | A-549 | DU-145 | MEL-28

COc1c(C)cc2c(c1O)[C@@H]1C3Cc4c(OC(C)=O)c(C)c5c(c4[C@H](CNC(=O)/C=C/c4ccccc4)N3[C@@H](O)[C@H](C2)N1C)OCO5 (stereo partly shown) [drawing 113]
0.1 nM: P-388 | HT-29 | A-549 | DU-145 | MEL-28
